{"source": "patent US20250152566A1", "about": "(priority 2023, published 2025)", "key": {"[1]": {"tested_on": "fatigue symptomatology after SARS-CoV-2 infection", "assay": "Patients 2.1 to 2.5: Bell score and cumulative sleep time in 24 h with and without Amifampridine", "format": "in vivo, human", "conditions": "for Bell score, long term: long-term medication, daily dose 20 mg to 25 mg, 5 mg each at an interval of 4 hours", "source_text": "(§1) The Bell-score (or scale) is a measure of the impediment in the case of ME & CFS. It is also suitable for long COVID patients. The Bell scale is individual because each patient has a different stress tolerance and suffering from severe symptoms at rest can be relatively different. • 100 No symptoms at rest; no symptoms with physical stress; a normal overall activity level; able to work full-time without any difficulties. • 90 No symptoms at rest; mild symptoms with physical and mental stress; a normal overall activity level; able to work full-time without any difficulties. • 80 Mild symptoms at rest; the symptoms intensify due to stress; a slight performance limitation noticeable only with activities, which are strenuous; able to work full-time in jobs, which require exertion of force, with difficulties. • 70 Mild symptoms at rest; significant limitations noticeable in the daily activities; the functional state is a total of about 90% of the norm—with the exception of activities, which require an exertion of force; able to work full-time with difficulties. • 60 Mild symptoms at rest; significant limitations in the daily activities; the functional state is a total of about 70%-90% of the norm; unable to work a full-time job if physical work is required there; however, able to work full-time if it is light work and the hours of work can be handled flexibly. • 50 Moderate symptoms at rest; moderate to severe symptoms in response to physical stress or activity; the functional state is reduced to 70% of the norm; unable to perform strenuous work, but able to perform light work or desk work for 4-5 hours daily, whereby rest periods are required. • 40 Moderate symptoms at rest; moderate to severe symptoms in response to stress or activity; the functional state is reduced to 50%-70% of the norm; unable to perform strenuous work, but able to perform light work or desk work for 3-4 hours daily, whereby rest periods are required. • 30 Moderate to severe symptoms at rest; severe symptoms in response to any stress or activity; the functional state is reduced to 50% of the norm; generally housebound; unable to perform strenuous work, but able to perform light work or desk work for 2-3 hours daily, whereby rest periods are required. • 20 Moderate to severe symptoms at rest; severe symptoms in response to any stress or activity; the functional state is reduced to 30%-50% of the norm, except for rare exceptions, unable to leave the house; bedridden for the majority of the day; unable to concentrate for more than one hour per day. • 10 Severe symptoms at rest; bedridden most of the time; leaving the house is not possible; significant cognitive symptoms, which make it impossible to concentrate. • 0 Constant severe symptoms; always bedridden; unable to perform the simplest care measures.\nThe following dosages of patients 2.1 to 2.5 and the changed Bell score values as well as the need for sleep in hours are illustrated in FIGS. 1 and 2 (FIG. 1 Bell-score with and without Amifampridine, patients 2.1 to 2.5, FIG. 2: cumulative sleep time in 24 h).\nIn the case of pat. 2.1, a psychotherapist without internal or neurological preexisting conditions, fluctuating fatigue symptomatology with a Bell score between 20 and 40 as well as increased need for sleep with 12 hours/24 h occurred after SARS-CoV-2 infection in May of 2022. After taking 5 mg of Amifampridine once, there was complete convalescence with a Bell score of 100, the need for sleep reduced to 7 hours/24 h.\nAfter withdrawal trials (three days no Amifampridine) with recurrent fatigue, a long-term medication with a daily dose of 20 mg to 25 mg of 5 mg each at an interval of 4 hours occurred, whereby the Bell score is permanently from 90 to 100. This Bell score value can already be maintained for three quarters of a year. Taken from morning to night before going to sleep.\nIn the case of pat. […]"}, "[2]": {"tested_on": "fatigue symptomatology after COVID infection", "assay": "Off-label therapy case descriptions (cases 1 to 3) of fatigue symptomatology after COVID infection", "format": "in vivo, human", "procedure": "(§2) Pyridine-3,4-diamine Amifampridine (formulation as finished drug) was administered in the below-mentioned application examples. As part of the double-blind study, capsules that look the same with Amifampridine or placebo were prepared blind by a pharmacy, whereby only the pharmacy knew which capsules contained active ingredient or placebo.\nThe following laboratory and ECG controls for detecting substance-associated complications were inconspicuous.\nIn case 3, a patient is described, who suffered from fatigue symptomatology with a need for sleep of up to 2×9 hours per day, after being infected with COVID twice."}, "[3]": {"tested_on": "fatigue after SARS-CoV-2 infection", "assay": "Double-blind withdrawal trial (verum/placebo, 3 days each) in pat. 2.1 and 2.2", "format": "in vivo, human", "conditions": "at start of the double-blind trial, already on Amifampridine (4 times 5 mg per day)", "procedure": "as §2\nIn the case of pat. 2.1 and 2.2, a long-term medication with 20 mg of Amifampridine each per day were required for reconvalescence and thus offered prerequisites for a double-blind withdrawal trial for 3 days each.\nPat. 2.1 with verum on days 1-3, followed by placebo on days 4-6:\nPat. (pat. 2.1) with Bell score 90 already started with Amifampridine, as described above, and continued this with blister with […] each day, one drawer with capsules for 3 days with 4 times 5 mg of Amifampridine each. The dosage for 3 days each was placebo with 4 times placebo capsules each for patient 1 and 2 (verum and placebo).\nPat. 2.1: verum on days 1-3, followed by placebo on days 4-6: reduction of the Bell score to minimally 30 in the placebo phase, increased sleep time to 10.5 hours (FIG. 3: pat. 2.1, Bell score (line with squares with side lines of the squares parallel and perpendicular to the main line; sleep time/24 h (line with smaller squares, tips of squares point upwards/downwards as well as to the right and left). […]"}, "[4]": {"tested_on": "fatigue symptomatology in post-COVID syndrome (PCS)", "assay": "Further study (case series, pat. 1 to 5): Bell score and need for sleep in post-COVID syndrome under Amifampridine", "format": "in vivo, human", "source_text": "as §1\nA further study was performed on a patient group. A reduced fatigue symptomatology was determined in this study as well in the case of post-COVID syndrome under Amifampridine.\nThe prevalence of a post-COVID syndrome (PCS) is 10-15% after SARS-CoV-2 infection, a large variety of functional symptoms appear in addition to specific organ diseases, predominantly a fatigue symptomatology. The latter is characterized by persistent tiredness, weakness, cognitive deficits as well as increased need for sleep. […] The Bell score, which focusses on the limitation of the vigilance, physical endurance and job, was used for the evaluation. • In the case of pat. 1 of the further study, a previous Zn. EBV infection is known, otherwise no internal or neurological preexisting conditions. Fluctuating fatigue symptomatology after SARS-CoV-2 infection in May of 2022 with a Bell score between 20 and 40, increased need for sleep with 12 hours/24 h. After taking 5 mg of Amifampridine three times within 24 h (h: hours), there was complete convalescence with a Bell score of 100, the need for sleep reduced to 7 hours/24 h. Withdrawal trials ended in a fatigue again. • In the case of pat. […]"}, "[5]": {"tested_on": "LEMS patients", "conditions": "cited from earlier work"}, "[6]": {"tested_on": "MS patients", "conditions": "described in the literature; cited from earlier work"}, "[7]": {"conditions": "pat. 2.5 (LEMS), 60 mg, later 70 mg per day (3 times 20 mg, optionally additional 5 mg)"}, "[8]": {"conditions": "pat. 2.5 (LEMS), initial administration of 3×5 mg"}, "[9]": {"conditions": "pat. 5 (LEMS), 5 mg three or four times as daily dose"}}, "note": "“Also recorded” adds a separate entry of the source.", "data": [{"compound": "Nc1ccncc1N", "note": "[Amifampridine, Pyridine-3,4-diamine]", "values": [{"measurement": "need for sleep", "setting": "[1]; pat. 2.1, after taking 5 mg once, before 12", "result": 7, "unit": "hours/24 h"}, {"measurement": "Bell score", "setting": "[1]; pat. 2.1, after taking 5 mg once, before 20 to 40", "result": 100}, {"measurement": "Bell score, long term", "setting": "[1]; pat. 2.1, held for three quarters of a year", "result": "90 to 100"}, {"measurement": "duration of the effect", "setting": "[1]; pat. 2.2, after taking 5 mg", "result": "about 36 hours"}, {"measurement": "need for sleep", "setting": "[1]; pat. 2.2, after taking 5 mg, before 11-12 hours/24 h", "result": "7 to 9", "unit": "h"}, {"measurement": "Bell score", "setting": "[1]; pat. 2.2, after taking 5 mg, before 40", "result": 80}, {"measurement": "Bell score, long term", "setting": "[1]; pat. 2.2, past month", "result": "90 to 100"}, {"measurement": "vigilance", "setting": "[1]; pat. 2.3, after 5 mg", "result": "unlimited vigilance"}, {"measurement": "need for sleep", "setting": "[1]; pat. 2.3, after 5 mg, before 12", "result": 7.5, "unit": "hours/24 h"}, {"measurement": "Bell score", "setting": "[1]; pat. 2.3, after 5 mg, before 40", "result": 100}, {"measurement": "Bell score with regard to fatigue", "setting": "[1]; [7]", "result": "70 to 80"}, {"measurement": "Bell score with regard to the muscular deficits", "setting": "[1]; [7]", "result": "approx. 20"}, {"measurement": "fatigue", "setting": "[1]; [8]", "result": "the fatigue ceased"}, {"measurement": "muscular endurance", "setting": "[1]; [8]", "result": "improved muscular endurance"}, {"measurement": "Bell score", "setting": "[1]; pat. 2.5 (LEMS), initial administration of 3×5 mg, before 10", "result": 80}, {"measurement": "need for sleep", "setting": "[1]; pat. 2.5 (LEMS), initial administration of 3×5 mg, before 16-18", "result": "8-9 hours/24 h"}, {"measurement": "Bell score", "setting": "[1]; patient 2.4 (post-COVID myocarditis), after 5 mg, before 20", "result": 50}, {"measurement": "need for sleep", "setting": "[1]; patient 2.4, after 5 mg, before 12-14", "result": "8 to 10", "unit": "hours/24 h"}, {"measurement": "muscular deficits", "setting": "[2]; case 1", "result": "immediate improvement of the muscular deficits"}, {"measurement": "serious fatigue symptomatology existing since the COVID infection", "setting": "[2]; case 1, need for sleep or rest up to 20 hours per day before", "result": "sudden improvement"}, {"measurement": "laboratory and ECG controls for detecting substance-associated complications", "setting": "[2]; case 2", "result": "inconspicuous"}, {"measurement": "ability to concentrate", "setting": "[2]; case 2, 5 mg of Amifampridine", "result": "complete restitution of the ability to concentrate"}, {"measurement": "assignable side effects", "setting": "[2]; case 2, 5 mg of Amifampridine", "result": "Slight perioral paresthesias"}, {"measurement": "fatigue symptomatology", "setting": "[2]; case 2, 5 mg of Amifampridine", "result": "complete improvement of the fatigue symptomatology"}, {"measurement": "existing fatigue", "setting": "[2]; case 2, daily dose of 3×5 mg", "result": "ceases completely"}, {"measurement": "ability to concentrate", "setting": "[2]; case 3, 5 mg of Amifampridine", "result": "sudden improvement of the ability to concentrate"}, {"measurement": "side effects", "setting": "[2]; case 3, 5 mg of Amifampridine", "result": "Transient perioral paresthesias with very low intensity"}, {"measurement": "need for sleep and rest", "setting": "[2]; case 3, 5 mg of Amifampridine, before up to 2×9 hours per day", "result": "physiological need for sleep and rest"}, {"measurement": "Bell score", "setting": "[3]", "result": 90}, {"measurement": "need for sleep", "setting": "[4]; pat. 1, after 5 mg three times within 24 h, before 12", "result": 7, "unit": "hours/24 h"}, {"measurement": "Bell score", "setting": "[4]; pat. 1, after 5 mg three times within 24 h, before 20 to 40", "result": 100}, {"measurement": "vigilance", "setting": "[4]; pat. 2, after 5 mg three times", "result": "unlimited vigilance"}, {"measurement": "need for sleep", "setting": "[4]; pat. 2, after 5 mg three times, before 12", "result": 7.5, "unit": "hours/24 h"}, {"measurement": "Bell score", "setting": "[4]; pat. 2, after 5 mg three times, before 40", "result": 100}, {"measurement": "duration of the effect", "setting": "[4]; pat. 3, after taking 5 mg", "result": "about 36 hours"}, {"measurement": "need for sleep", "setting": "[4]; pat. 3, after taking 5 mg, before 11 to 12 hours/24 h", "result": "7 to 9", "unit": "h"}, {"measurement": "Bell score", "setting": "[4]; pat. 3, after taking 5 mg, before 40", "result": 100}, {"measurement": "Bell score", "setting": "[4]; pat. 4 (post-COVID myocarditis), 5 mg three times within 24 h, before 20", "result": 50}, {"measurement": "need for sleep", "setting": "[4]; pat. 4, 5 mg three times within 24 h, before 12 to 14", "result": "8 to 10", "unit": "hours/24 h"}, {"measurement": "fatigue", "setting": "[4]; [9]", "result": "the fatigue ceased"}, {"measurement": "muscular endurance", "setting": "[4]; [9]", "result": "improved muscular endurance"}, {"measurement": "need for sleep", "setting": "[4]; pat. 5 (LEMS), 5 mg three or four times as daily dose, before 16 to 18", "result": "8-9 hours/24 h"}, {"measurement": "co-indicated / coincident fatigue of LEMS patients", "setting": "[5]; LEMS patients", "result": "improvement of a co-indicated fatigue"}]}, {"compound": "Nc1ccncc1", "note": "[Fampridine]", "values": [{"measurement": "accompanying fatigue symptomatology in MS patients", "setting": "[6]", "result": "improvement of an accompanying fatigue symptomatology; also recorded: favorable effects"}]}, {"compound": "Amifampridine Phosphate", "values": [{"measurement": "coincident fatigue with LEMS", "setting": "[5]; as phosphates, 20 to 80 mg as daily doses, J Clin Neuromuscul Dis. 2019", "result": "Improvement of a coincident fatigue"}]}]}
